Reference: patent publication US9776997B2, “3-aryl-substituted imidazo[1,2-A]pyridines and their use” (Bayer Pharma Aktiengesellschaft, priority 2013, dated 2017)
Where “and” joins values, the source holds several entries; their conditions need not be identical. Equal entries are not always repeated.

Target: T1, recombinant guanylate cyclase reporter cell line (Rattus norvegicus, UniProt P19686+P20595)
T1 construct: expressed in transfected cells; host or cells: recombinant reporter cell line
T1 sequence (P19686 1-690): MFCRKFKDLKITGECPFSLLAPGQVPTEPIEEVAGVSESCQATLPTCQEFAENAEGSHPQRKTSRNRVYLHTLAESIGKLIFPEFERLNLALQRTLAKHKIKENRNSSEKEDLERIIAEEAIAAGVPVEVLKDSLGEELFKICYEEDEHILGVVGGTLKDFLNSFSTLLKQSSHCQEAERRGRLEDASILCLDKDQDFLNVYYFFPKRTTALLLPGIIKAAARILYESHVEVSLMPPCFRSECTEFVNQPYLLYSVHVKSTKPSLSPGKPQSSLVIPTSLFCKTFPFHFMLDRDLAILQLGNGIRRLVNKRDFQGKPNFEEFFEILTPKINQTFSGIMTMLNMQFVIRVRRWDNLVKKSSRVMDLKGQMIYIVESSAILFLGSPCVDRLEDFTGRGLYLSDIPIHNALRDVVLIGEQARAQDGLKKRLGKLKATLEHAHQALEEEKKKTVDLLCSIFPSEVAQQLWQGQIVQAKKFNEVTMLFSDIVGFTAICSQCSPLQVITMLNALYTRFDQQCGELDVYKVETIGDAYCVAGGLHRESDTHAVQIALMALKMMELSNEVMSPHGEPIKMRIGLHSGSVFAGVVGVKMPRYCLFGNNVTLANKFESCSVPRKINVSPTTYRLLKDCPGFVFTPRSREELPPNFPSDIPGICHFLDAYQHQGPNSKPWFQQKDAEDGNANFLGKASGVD
T1 sequence (P20595 1-619): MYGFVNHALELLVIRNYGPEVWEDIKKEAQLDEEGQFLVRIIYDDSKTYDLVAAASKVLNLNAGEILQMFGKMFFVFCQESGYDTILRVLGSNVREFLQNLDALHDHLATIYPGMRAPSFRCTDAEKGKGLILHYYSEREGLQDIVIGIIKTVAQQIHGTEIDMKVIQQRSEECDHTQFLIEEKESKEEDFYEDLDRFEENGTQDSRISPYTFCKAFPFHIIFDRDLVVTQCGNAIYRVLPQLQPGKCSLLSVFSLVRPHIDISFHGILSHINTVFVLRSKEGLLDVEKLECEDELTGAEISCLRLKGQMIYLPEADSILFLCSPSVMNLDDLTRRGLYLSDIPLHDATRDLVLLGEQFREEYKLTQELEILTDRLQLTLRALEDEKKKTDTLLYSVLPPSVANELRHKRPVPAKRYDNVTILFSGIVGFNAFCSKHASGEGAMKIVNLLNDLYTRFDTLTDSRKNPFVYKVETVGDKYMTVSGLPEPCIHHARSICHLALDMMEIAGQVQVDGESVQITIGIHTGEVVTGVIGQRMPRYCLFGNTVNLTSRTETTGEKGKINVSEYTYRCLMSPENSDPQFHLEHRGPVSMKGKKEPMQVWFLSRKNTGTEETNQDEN
Test: Effect on a recombinant guanylate cyclase reporter cell line
Format: cell-based
Settings: MEC = minimum effective concentration; in some cases mean values for individual determinations
Experimental: B-2. Effect on a Recombinant Guanylate Cyclase Reporter Cell Line
The cellular effect of the inventive compounds is determined using a recombinant guanylate cyclase reporter cell line, as described in F. Wunder et al., Anal. Biochem. 339, 104-112 (2005).
Representative MEC values (MEC=minimum effective concentration) for the inventive compounds are shown in the table below (in some cases as mean values for individual determinations): […]

Structure (SMILES)	MEC
Cc1cc(-c2c(C)nc3c(OCc4c(F)cccc4F)cccn23)cnc1Cl [Example 12, 3-(6-chloro-5-methylpyridin-3-yl)-8-[(2,6-difluorobenzyl)oxy]-2-methylimidazo[1,2-a]pyridine]	0.1 µM
Cc1cc(OCc2c(F)cccc2F)c2nc(C)c(-c3cncc(C(N)=O)c3)n2c1 [Example 77, 5-{8-[(2,6-Difluorobenzyl)oxy]-2,6-dimethylimidazo[1,2-a]pyridin-3-yl}nicotinamide]	0.1 µM
Cc1cc(OCc2c(F)cccc2F)c2nc(C)c(-c3cnn(Cc4cc(C)on4)c3)n2c1 [Example 98, 8-[(2,6-Difluorobenzyl)oxy]-2,6-dimethyl-3-{1-[(5-methyl-1,2-oxazol-3-yl)methyl]-1H-pyrazol-4-yl}imidazo[1,2-a]pyridine]	0.03 µM and 3.0 µM
Cc1nc2c(OCc3c(F)cccc3F)cccn2c1-c1cccc2[nH]ncc12 [Example 53]	1.0 µM
Cc1nc(-c2nnc(-c3c(C)nc4c(OCC5CCCCC5)cccn34)o2)cs1 [Example 69]	3.0 µM
COC(=O)CC(C)n1cc(-c2c(C)nc3c(OCc4c(F)cccc4F)cc(C)cn23)cn1 (centres unmarked) [Example 105]	0.01 µM
Cc1cc(OCc2c(F)cccc2F)c2nc(C)c(-c3n[nH]c(C(F)(F)F)n3)n2c1 [Example 126, 8-[(2,6-Difluorobenzyl)oxy]-2,6-dimethyl-3-[5-(trifluoromethyl)-1H-1,2,4-triazol-3-yl]imidazo[1,2-a]pyridine]	3.0 µM

Continued, values first:

MEC	Structure (SMILES)
0.3 µM	CCn1cc(-c2c(C)nc3c(OCc4c(F)cccc4F)cccn23)cn1 [Example 49]
3.0 µM	Cc1nc2c(OCc3c(F)cccc3F)cccn2c1-c1ccnn1C [Example 11, 8-[(2,6-difluorobenzyl)oxy]-2-methyl-3-(1-methyl-1H-pyrazol-5-yl)imidazo[1,2-a]pyridine]
0.1 µM	CCS(=O)(=O)c1cccc(-c2c(C)nc3c(OCc4c(F)cccc4F)cccn23)c1 [Example 6, 8-[(2,6-difluorobenzyl)oxy]-3-[3-(ethylsulphonyl)phenyl]-2-methylimidazo[1,2-a]pyridine]
3.0 µM	Cc1cc(OCc2c(F)cccc2F)c2nc(C)c(-c3nnc(CC(C)(C)N)o3)n2c1 [Example 130, 1-(5-{8-[(2,6-Difluorobenzyl)oxy]-2,6-dimethylimidazo[1,2-a]pyridin-3-yl}-1,3,4-oxadiazol-2-yl)-2-methylpropan-2-amine]
0.065 µM	Cc1nc2c(OCc3c(F)cccc3F)cccn2c1-c1cccc(CN2CCCC2)c1 [Example 15, 8-[(2,6-difluorobenzyl)oxy]-2-methyl-3-[3-(pyrrolidin-1-ylmethyl)phenyl]imidazo[1,2-a]pyridine]
0.3 µM	Cc1nc2c(OCc3c(F)cccc3F)cccn2c1-c1cnn(C)c1 [Example 50]
3.0 µM	Cc1nc2c(OCc3c(F)cccc3F)cccn2c1-c1cnccn1 [Example 60, 8-[(2,6-Difluorobenzyl)oxy]-2-methyl-3-(pyrazin-2-yl)imidazo[1,2-a]pyridine]
